# Data reported in patent US9637451B2, “Indole compound” (ASTELLAS PHARMA INC., priority 2014, dated 2017).
# pEC50: −log10 of the molar value.
# Legend:
# [1] = CSF-to-plasma unbound concentration ratio in rat after intravenous administration; assay type: in vivo
# Description: A test compound (100 μg/mL, 50% acetonitrile solution) at 1% (v/v) with respect to the amount of the plasma was added to rat plasma, and dispensed to a sample for a supernatant and a sample for the plasma. The sample for a supernatant was ultracentrifuged at 436,000×g and 37° C. for 140 minutes, and the sample for the plasma was incubated at 37° C. for 140 minutes.
# After 140 minutes, the sample for a supernatant after the ultracentrifugation and the sample for the plasma were taken, and mixed with the blank plasma or the blank supernatant, respectively. Acetonitrile including an internal standard material was added to each of the samples with the removal of protein, and after the centrifugation at 2150×g and 4° C. for 10 minutes the supernatant was injected into LC-MS/MS.
# The unbound fraction in the plasma was calculated by the following equation.
# To the plasma of a rat was added a test compound (0.2 mM, 50% acetonitrile solution) in an amount corresponding to 1% (v/v) of the plasma amount, and 200 μL of obtained plasma sample was filled into a plasma chamber of a RED device insert. A buffer chamber was filled with 350 μL of PBS, followed by performing equilibrium dialysis by stirring in a CO2 incubator at 37° C. for 16 hours. The sample after the completion of the equilibrium dialysis was recovered and the volume of the plasma sample was measured. To the plasma sample after the completion of the equilibrium dialysis were added PBS, a 20 mM ammonium formate buffer, and acetonitrile including an internal standard material. Similarly, to the PBS sample after the completion of the equilibrium dialysis was added a blank plasma, a 20 mM ammonium formate buffer, and acetonitrile including an internal standard material. This sample was left to stand at 4° C. for 30 minutes and then centrifuged 1500×g for 10 minutes, and the supernatant was measured by LC-MS/MS. The unbound fraction in the plasma was calculated by the following equation. fp=Cf/{(Cp−Cf)(V/V0)+Cf}
# At 15 minutes after intravenously administration of the test compound to the rats, the plasma and CSF were collected. A 50% acetonitrile solution and an acetonitrile including internal standard material were added to the collected plasma or CSF. After centrifuging this sample at 4° C. and 2150×g for 10 minutes, the supernatant was measured by LC-MS/MS, and the total concentration of the test compound in the plasma (Cplasma,t) and the concentration of the test compound in CSF (CCSF) were obtained. The unbound concentration in the plasma (Cplasma,u) of the test compound and the CSF-to-plasma unbound concentration ratio (Kp,uu,CSF) of the test compound was calculated by the following equation.
# The Kp,uu,CSF values and the Kp,brain values of ramelteon and some Example compounds of the present invention are shown in Table 4. Ex represents Example No. of the test compound. Unless otherwise specified, the Kp,uu,CSF was calculated using the fp values determined by an ultracentrifugation method. Further, N.T. represents Not Tested.
# (Ramelteon represents the values of Kp,uu,CSF after 10 minutes after the intravenous administration. Further, the Kp,uu,CSF of Examples 37 and 38 was calculated using the fp values determined by an equilibrium dialysis method. In addition, N.D. denotes the concentration of the test compound in CSF that is no higher than the detection limit.)
# SD female rats = test: Effect of test compound on urethral pressure in anesthetized rats; assay type: in vivo, rat
# Description: SD female rats were anesthetized with urethane and subjected to laparotomy. Then, the bladder apex was incised and a catheter was inserted from the bladder apex. Further, the catheter tip was ligated and fixed to be located in the proximal urethra portion. The catheter was connected to a pressure transducer and an infusion pump. Further, a catheter for administrating the compound was fitted into the femoral vein. Physiological saline was continuously infused into the urethra and the perfusion pressure in the urethra was measured. After the urethral pressure was stabilized, the test compound that had been dissolved in physiological saline, or physiological saline including 5% dimethylacetamide and 0.5% Cremophor was administered intravenously at 0.01 mg/kg or 0.1 mg/kg, and a change in urethral pressures was measured.
# Further, the results of administering an active metabolite of midodrine (ST-1059: purchased from CHEMIZON) (J. Urology, 118, 980-982 (1977)) which is an α1 adrenoceptor agonist and is confirmed to have a clinical effect on stress urinary incontinence at doses, 0.01 mg/kg and, 0.1 mg/kg in rats, presumed to correspond to the clinical doses are referenced and shown in the Tables below.
# The increment value in the urethral pressures of ramelteon and the Example compounds of the present invention at the time of administration are shown in Table 3. Ex represents Example No. of the test compound and N.T represents Not Tested.
# [2] = test system: isolated urethra in a rat; conditions: Patent Document 5; cited from earlier work
# rat = test: Measurement test of electroencephalogram in rat (sleep-awake cycle); assay type: in vivo
# Description: After the completion of a quarantine period, the animals showing no abnormal health condition were subjected to an electroencephalogram electrode chronic implantation surgery with reference to brain atlas of Pellegrino (Plenum Press, New York (1979)), or the like. Under anesthesia with pentobarbital sodium, the rat was calibrated in a brain stereotaxic apparatus. In the frontal cortex, a monopolar silver ball electrode having a diameter of the tip of about 1 mm was placed on a hard film of the brain. Into the hippocampus, a laminated bipolar electrodes made of stainless steel was stuck. The reference electrode was screwed around the olfactory brain. Further, as for the electromyogram measurement, the lead wire was implanted in the both electrodes about 1 cm between the electrodes in the neck portion. The other end was exposed to the head portion subcutaneously. The electrodes and the lead wires were subjected to soldering with connector sockets and fixed to the skull with a dental resin or the like.
# The rats were accommodated in a measurement cage under rat feeding and water supply on the morning of the day of administration, and accustomed to the measurement environment. After measuring the weight using an electronic scale balance, a lead wire and a connector socket were connected 30 minutes or more before the start of the electroencephalogram measurement, and the rat was accustomed in the measurement state under no anesthesia and no custody. The test compounds were intraperitoneally or orally administered to the rats and the electroencephalogram was measured continuously until 6 hours after the administration.
# Ramelteon: solvent, 0.1 mg/kg, 1 mg/kg, and 10 mg/kg; intraperitoneal administration
# Example 1: solvent, 3 mg/kg, 30 mg/kg, and 300 mg/kg; oral administration
# Example 6: solvent, 10 mg/kg, 30 mg/kg, and 300 mg/kg; oral administration
# The electrical signals of electroencephalogram and of electromyogram were applied to an electroencephalogram system and an electroencephalogram frequency analysis program of a personal computer was used to acquire the wave form of the electroencephalogram from the electroencephalograph system. In addition, the image signals of the electroencephalogram waveform were applied to an EEG video system and recorded on DVD-R using a DVD recorder. The behavior observation was carried out through a video camera at the same time as the electroencephalogram measurement and the images were also recorded on DVD-R using DVD recorder.
# The presence or absence of abnormality in the electroencephalogram waveform in up to 6 hours from immediately after the administration, to each animal, respectively, was observed.
# The analysis of a sleep-awake cycle was carried out using a sleep stage display-supporting program (MTS50061B, Japan Santec Corporation) based on the electroencephalogram waveforms acquired with an electroencephalogram frequency analysis program. Using the index of electroencephalogram, electromyogram, and behavior, the sleep steps were classified into an awake phase, a rest phase, a slow wave light sleep (S.W.L.S.) phase, a slow wave deep sleep (S.W.D.S.) phase, and a fast wave sleep (F.W.S., REM sleep) phase. Further, the rest phase, the slow wave light sleep phase, and the slow wave deep sleep phase were summed to determine a slow wave sleep (S.W.S., Non-REM sleep) phase. […] As the assessment criteria in the respective sleep steps, the criteria described in Japanese Pharmacological Journal 84, 25-89 (1984) were used.
# human MT1 receptor = target: T1, human MT1 receptor (Homo sapiens, UniProt P48039); test: Activation of human MT1 receptor in receptor-expressing cells, intracellular Ca2+ by FLIPR; assay type: cell-based
# T1 construct: expressed in transfected cells
# T1 sequence (P48039 whole entry): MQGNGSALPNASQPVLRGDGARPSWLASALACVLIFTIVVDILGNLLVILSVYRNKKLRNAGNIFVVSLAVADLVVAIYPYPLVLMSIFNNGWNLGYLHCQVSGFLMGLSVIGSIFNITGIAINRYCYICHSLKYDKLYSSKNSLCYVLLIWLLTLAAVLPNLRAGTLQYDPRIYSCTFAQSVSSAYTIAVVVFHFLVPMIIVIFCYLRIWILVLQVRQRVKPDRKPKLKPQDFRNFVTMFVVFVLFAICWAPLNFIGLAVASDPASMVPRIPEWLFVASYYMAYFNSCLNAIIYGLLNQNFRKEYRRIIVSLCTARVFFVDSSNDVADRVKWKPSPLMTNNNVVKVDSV
# human MT2 receptor = target: T2, human MT2 receptor (Homo sapiens, UniProt P49286); test: Activation of human MT2 receptor in receptor-expressing cells, intracellular Ca2+ by FLIPR; assay type: cell-based
# T2 construct: expressed in transfected cells
# T2 sequence (P49286 1-362): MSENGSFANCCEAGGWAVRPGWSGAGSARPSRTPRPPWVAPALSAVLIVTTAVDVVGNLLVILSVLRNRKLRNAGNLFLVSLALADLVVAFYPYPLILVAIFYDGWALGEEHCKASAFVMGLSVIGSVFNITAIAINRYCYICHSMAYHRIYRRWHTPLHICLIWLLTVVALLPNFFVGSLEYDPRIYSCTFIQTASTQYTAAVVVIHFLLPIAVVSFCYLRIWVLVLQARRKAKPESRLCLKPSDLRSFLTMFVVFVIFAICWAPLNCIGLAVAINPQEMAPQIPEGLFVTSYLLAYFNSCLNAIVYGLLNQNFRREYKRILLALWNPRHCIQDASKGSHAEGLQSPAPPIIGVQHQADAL
# [3] = maximum reaction by ramelteon taken as 100%
# [4] = oral, any of the doses 3, 30 and 300 mg/kg
compound,measurement,setting,value
"CCC(=O)NCC[C@@H]1CCc2ccc3c(c21)CCO3 [Ramelteon, ramelteon, reference compound]","Kp,uu,CSF",[1]; 10 minutes after the intravenous administration,1.74
same,Kp uu at 10 min,"[1]; CSF and plasma (unbound), iv, 10 minutes after the intravenous administration",> 1
same,Increment value in the urethral pressures compared with ST-1059,SD female rats; intravenous,equal to or more than that of ST-1059
same,"contraction of isolated urethra, increase of urethral pressure",[2],contract the isolated urethra in a rat to increase the urethral pressure of the rat
same,occupancy of the sleep step of electroencephalogram,"rat; 0.1 mg/kg intraperitoneal, up to 6 hours",there is a tendency that the occupancy of the sleep step of electroencephalogram from a dose of 0.1 mg/kg increases
same,occupancy of the respective sleep steps,"rat; 1 mg/kg intraperitoneal, up to 6 hours",significantly increases
same,sleep action,"rat; intraperitoneal 0.1, 1 and 10 mg/kg",there is a sleep action
"CCC(=O)NCCc1c(C)[nH]c2ccc(OCCOc3ccn(C)n3)cc12 [Example 1, N-[2-{2-methyl-5-(2-[(1-methyl-1H-pyrazol-3-yl)oxy]ethoxy}-1H-indol-3-yl)ethyl]propanamide]",Kp uu at 0.25 h,"[1]; CSF and plasma (unbound), iv, 15 minutes after intravenous administration, fp by ultracentrifugation method",0.05
same,pEC50,"human MT1 receptor; HEK293EBNA1 cells stably expressing human MT1 and Gq/i chimeric G protein, Ca2+ FLIPR",8.41
same,Emax,human MT1 receptor; [3],95%
same,pEC50,"human MT2 receptor; HEK293 cells stably expressing human MT2 and Gq/i chimeric G protein, Ca2+ FLIPR",7.85
same,Emax,human MT2 receptor; [3],119%
same,urethral pressure increasing action,SD female rats; dose of 0.01 mg/kg,good urethral pressure increasing action
same,occupancy in the respective sleep steps of electroencephalogram,rat; [4],no change in the occupancy in the respective sleep steps of electroencephalogram could be seen
same,sleep action,rat; [4],there was no sleep action
"COc1ccc2[nH]cc(CCNC(C)=O)c2c1 [Melatonin, melatonin]","contraction of isolated urethra, increase of urethral pressure",[2],contract the isolated urethra in a rat to increase the urethral pressure of the rat
COc1ccc2cccc(CCNC(C)=O)c2c1 [agomelatine],"contraction of isolated urethra, increase of urethral pressure",[2],contract the isolated urethra in a rat to increase the urethral pressure of the rat
